Earlier results on 1 compound are cited in article PMC3983394 (Journal of Medicinal Chemistry, 2014).

For data set [1], the system named is mice.
Data set [2] relates to mice. The source holds these as a separate data set.
In data set [3] the test system is mice. The source holds these as a separate data set.
Data set [4] relates to mice. The source holds these as a separate data set.

With `CN1CCC[C@H]1c1cccnc1` [nicotine], the ED50 hot-plate with mice [1] is given as 0.65 (0.25–0.85) mg/kg. Also, in the data set with mice [2], the ED50 hypothermia is 1.0 (0.6–2.1) mg/kg. In addition, the ED50 tail-flick in the data set with mice [3] was 1.3 (0.5–1.8) mg/kg. The ED50 spontaneous activity in the data set with mice [4] is listed as 0.5 (0.15–0.78) mg/kg.
